Assays:
SW620 cells [1] = assay: Western blot assay, SW620 cells; assay type: cell-based, human; settings: 24 h
Experimental: Cells were cultured in 6-well plates at a density of 40,000 cells per well overnight, and then exposed to selected compounds at different concentrations for 24 h. Subsequently, the cells were lysed in lysate buffer containing 50 mM Tris-HCl (PH 6.8), 2% SDS, 0.1% bromophenol blue, 1.5% DTT, 10% glycerol. The total protein extracts were boiled, sonicated, separated by 10–12% SDS-PAGE gels and transferred to polyvinylidene fluoride (PVDF) membranes. Then the membranes were blocked with 5% non-fat milk at room temperature for 1 h and incubated with primary antibodies at 4 °C overnight. After that, membranes were washed with 1× TBST for three times and incubated with secondary antibody at room temperature for 2 h. Finally, after washing with 1× TBST for three times, the bolts were visualised by an enhanced chemiluminescence kit (Beyotime, China) using the Amersham Imager 600 system (GE Healthcare Life Science, Shanghai, China).

BRD4 (BD1) = target: T1, BRD4 (BD1) (Homo sapiens, UniProt O60885); assay: HTRF assay BRD4 (BD1); assay type: binding
T1 construct: purchased Reaction Biology Corp. RD-11-157
Experimental: In brief, compounds were serially diluted in Echo plate according to the plate map and DMSO’s final fraction is 0.1%. Then, transferring compounds and DMSO to 384-well assay plate by Echo. After that, 2× Protein and Peptide Mix was added to the assay plate and 2× Detection Mix was then added to assay plate and shook for 30 s. After incubating the plate at room temperature for 1.5 h, the HTRF signals (Excitation wavelength at 340 nm, Emission wavelength at 615 & 665 nm) was read on EnVision (PerkinElmer, UK). (+)-JQ1 (BPS Bioscience, Cat. No. 27402) was used as a positive control. BRD4-1 (RD-11–157) and BRD4-2 (RD-11–158) were purchased from Reaction Biology Corp. (PENN, USA). For Curve fitting, the inhibition values was calculated in Excel using Equation (1): Inhibition %=(Max-Signal)/(Max-Min)*100, and the IC50 values was calculated in XL-Fit using Equation (2): Y = Bottom + (Top-Bottom)/(1+(IC50/X)[…]), Y is %inhibition and X is compound concentration.

SW480 cells [2] = assay: Colony formation, SW480 cells; assay type: cell-based, human; settings: 0 to 32 μM for 24 h, then 10 days
Experimental: SW620 and SW480 cells were seeded in 6-well plates (1000 cells per well) and cultured in RPMI-1640 medium containing 10% FBS overnight. After the cells treatment with DMSO or compound ID-11 (4, 8, 16, and 32 μM) for 24 h, the culture medium was replaced by fresh RPMI-1640 medium (containing 10% FBS) and continue culturing for another 10 days. Then the cells were washed with PBS and fixed with methanol for 15 min and stained with 0.1% crystal violet for another 30 min. Finally, the cells were washed with running water, air-dried and visualised by photographing.

SW480 cells [3] = assay: Quantitative RT-PCR, SW480 cells; assay type: cell-based, human; settings: SW480, 0 to 24 μM, 24 h, qRT-PCR
Experimental: (§1) Cells (50,000 cells per well) incubated in 6-well plates were treated with compound ID-11 for 24 h. After that, the total RNA was extracted using Total RNA Extraction Reagent (Invitrogen, USA) according to the manufacturer’s instructions and quantified with NanoDrop 2000 (Nanodrop, USA). Then the cDNA was synthesized from total RNA using High-Capacity cDNA Reverse Transcription Kit (Applied Biosystems, USA). The SYBR Green Master reagents (Applied Biosystems, USA) was used to determine the relative expression of mRNA level by quantitative real-time PCR (qRT-PCR). The primer sequences are shown below.

RKO cells = assay: MTS cell viability assay, RKO cells; assay type: cell-based; settings: Homo sapiens, 72 h
Excerpt: (§2) Human colorectal cancer cell lines including RKO, SW620 and SW480 were purchased from Chinese Academy of Sciences, a typical cell library culture preservation committee (Shanghai, China). Normal human colon epithelial cell line NCM460 was purchased from ATCC (Washington, DC, USA). RPMI-1640 medium (12633020), foetal bovine serum (FBS, 26170043), penicillin-streptomycin (10378016) and phosphate buffered saline (PBS, 70011044) were purchased from Gibco (Eggenstein, Germany). 5-Fluorouracil (5-FU, E0201010050, purity ≥98%) was purchased from Energy Chemical (Shanghai, China). Dimethyl sulfoxide (DMSO, 41639) was obtained from Sigma-Aldrich (St. Louis, MO). 3–(4,5-dimethylthiazol-2-yl)-5–(3-carboxymethoxyphenyl)-2–(4-sulfophenyl)-2H-tetrazolium (MTS, G1111) was purchased from Promega (Madison, WI, USA). All cell lines were cultured in RPMI-1640 medium supplemented with 10% FBS, penicillin (100 units/mL) and streptomycin ([…]) at 37 °C in a humidified atmosphere containing 5% CO2.
(§3) Cell viability was measured via MTS assay. RKO, SW620, SW480 and NCM460 cells were seeded in 96-well plates at a density of 5000 cells per well for 24 h. After treatment with the test compounds at indicated concentration for another 48 h or 72 h at 37 °C, MTS solution was added to each well and incubated for another 30 min at 37 °C. Then, the absorbance at 490 nm was measured by a BioTek Synergy H4 microplate Reader (Vermont, USA). The IC50 values were calculated with Graphpad 7.0 software packages.

SW480 cells [4] = assay: MTS cell viability assay, SW480 cells; assay type: cell-based; settings: Homo sapiens, 72 h
Excerpt: as §2, §3

SW620 cells [5] = assay: Quantitative RT-PCR, SW620 cells; assay type: cell-based, human; settings: SW620, 0 to 24 μM, 24 h, qRT-PCR
Experimental: as §1

`O=c1ccc2cc(CSC(=S)n3ccnc3)ccc2o1` [ID-11, (2-Oxo-2H-chromen-6-yl)methyl 1H-imidazole-1-carbodithioate] was tested, and the “expression level of cdc2” value (SW620 cells [1]; SW620, 0 to 16 μM) was “decreased in a concentration-dependent way”, the “expression level of cleaved PARP” value (SW620 cells [1]; SW620, 0 to 16 μM) was “increased in a dose-dependent way” and the “expression level of cyclin B1” value (SW620 cells [1]; SW620, 0 to 16 μM) was “decreased in a concentration-dependent way”. For the same molecule, the “protein expression level of Bcl-2” value (SW620 cells [1]; SW620, 0 to 24 μM) was “decreased”, the “protein expression level of c-Myc” value (SW620 cells [1]; SW620, 0 to 24 μM) was “decreased” and the inhibition at 10 µM (BRD4 (BD1); 10 μM, read-out: Inhibitory rate at 10 μM, BRD4 (BD1)) was 68.9%. For the same molecule, the IC50 (BRD4 (BD1); mean ± SD of three independent experiments) was 7.8 ± 2.2 µM, the colony formation (SW480 cells [2]) was “effectively inhibited” and the “mRNA relative expression level of Bcl-2” value (SW480 cells [3]) was “also decreased in a concentration dependent way”. For the same molecule, the “mRNA relative expression level of c-Myc” value (SW480 cells [3]) was “also decreased in a concentration dependent way”, the viability at 10 µM (RKO cells; 10 μM) was 29.4% and the IC50 (RKO cells) was 6.4 µM. The viability at 10 µM (SW480 cells [4]; 10 μM) was 20.2%, the IC50 (SW480 cells [4]) was 3.57 µM and the “mRNA relative expression level of Bcl-2” value (SW620 cells [5]) was “also decreased in a concentration dependent way”. For the same molecule, the “mRNA relative expression level of c-Myc” value (SW620 cells [5]) was “also decreased in a concentration dependent way”.

Reference: article PMC8759731, “Design, synthesis, and evaluation of novel coumarin-dithiocarbamate derivatives (IDs) as anti-colorectal cancer agents” (Journal of Enzyme Inhibition and Medicinal Chemistry, 2021)
